In patent publication US10912832B2, “Multi-drug delivery system and uses thereof” (Academia Sinica, priority 2014, dated 2021):

What was measured:
HLI mouse model [1] = assay: Hindlimb ischemia (HLI) model, PEG-IGF-1: laser Doppler blood flow and limb appearance; type: in vivo, mice
Method: (§1) Microvascular blood flow was measured on a laser Doppler imager (Moor Instrument, UK). The blood flow before surgery, 1 day afterwards, every week for the following 4 weeks was recorded for both limbs and before sacrificing the mice. The data are presented as the blood flow ratio of the ischemia limb (left) to the normal limb (right).

[2] = tested on: apoptotic cells at the HA/AGP4 injection site in the ischemic leg muscle; assay: HLI model, PEG-IGF-1: TUNEL assay of ischemic leg muscle
Text: The HLI model was created by performing the left femoral artery and iliac artery ligation in mice and then cut to induce hindlimb ischemia (Limbourg et al., Nat. Protocols (2009) 4, 1737-1748.). The administrations for the experimental mice were divided into 3 parts: PEG-IGF-1, PEG-G-CSF, and the combined treatment. The treatment of PEG-IGF-1 and PEG-G-CSF are including five groups: Sham, HLI with the treatment of, 2% HA alone plus therapeutics or HA with AGP4 and followed by PBS or therapeutics. […]
The fixed distal calf and thigh muscles were deparaffinized, rehydrated and boiled in 10 mM sodium citrate (pH 6.0) for 10 minutes, followed by incubation with antibodies against tropomyosin (DHSB, Iowa city, Iowa, USA), WGA and isolectin (Invitrogen, Grand Island, N.Y., USA) at 4° C. overnight, and then incubated with Alexa Fluor 488- or 568-conjugated secondary antibodies (Invitrogen, Carlsbad, Calif., USA). After staining with DAPI (Sigma-Aldrich, St. Louis, Mo., USA), sections were mounted and observed under confocal microscope (LSM 700, Carl Zeiss MicroImaging, Germany) and fluorescence microscope. The capillary and arteriole densities at the border zone were measured and images were taken from 8 randomly-selected ischemic areas (200× magnification) in each sample and quantification was performed by manually counting each section; the 8 values were averaged. […]

HLI mouse model [3] = assay: HLI model, PEG-G-CSF: laser Doppler blood flow and limb appearance; type: in vivo, mice; settings: HA-alone + PEG-G-CSF
Method: as §1
(§2) Results are depicted in FIGS. 5B to 5C.

[4] = tested on: hematopoietic stem cells (HSCs) and endothelial progenitor cells (EPCs); assay: HLI model, PEG-G-CSF: anti-CD34 / anti-CD133 staining of recruited cells; type: in vivo, mice; settings: HA/AGP4 + PEG-G-CSF vs HA-alone+PEG-G-CSF and HA/AGP4+PBS
Text: as §2

Row | Molecule | nail discoloration (HLI mouse model [1]; HA-alone + PEG-IGF-1) | blood flow of ischemic leg compared with sham group (HLI mouse model [1]; HA-alone i.m. + PEG-IGF-1 iv, Day 1 or Day 2) | blood flow at the ischemic leg (HLI mouse model [1]; HA/AGP4 i.m. followed by PEG-IGF-1 iv (30 μg, three doses at 8 hrs interval)) | nail discoloration (HLI mouse model [1]; PEG-IGF-1 administered after HA/AGP4) | ischemic damage (HLI mouse model [1]; PEG-IGF-1 injections after HA/AGP4) | number of apoptotic cells (TUNEL) ([2]; HA-alone group, absence of AGP4) | number of apoptotic cells (TUNEL) ([2]; PEG-IGF-1 after administration of HA/AGP4) | nail discoloration (HLI mouse model [3]) | number of recruited cells at the HA/AGP4 injection sites [4]
1 | PEG-IGF-1: PEGylated Insulin Growth Factor-1 | signs of nail discoloration | no significant improvement | did not improve the blood flow | not obvious | minimized the ischemic damage | failed to reduce the number of apoptotic cells | significant reduction in apoptotic cells | – | –
2 | PEG-G-CSF: PEGylated Granulocyte Colony-Stimulating Factor (protein, UniProt P09919 31-207, looked up, PEGylated, PEGylated Granulocyte Colony-Stimulating Factor) Granulocyte …: TPLGPASSLPQSFLLKCLEQVRKIQGDGAALQEKLVSECATYKLCHPEELVLLGHSLGIPWAPLSSCPSQALQLAGCLSQLHSGLFLYQGLLQALEGISPELGPTLDTLQLDVADFATTIWQQMEELGMAPALQPTQGAMPAFASAFQRRAGGVLVASHLQSFLEVSYRVLRHLAQP | – | – | – | – | – | – | – | nail discoloration was seen | increased the number of HSCs (CD133) and ECs (CD34)
